Results reported in ChEMBL document CHEMBL5465560, “Selectivity Literature for EUbOPEN Chemogenomic Library” (2024).
One block for each molecule: values may come before it.

Legend:
[1] = biological target: Tyrosine-protein kinase Yes (Homo sapiens) (UniProt P07947); experiment: Selectivity interaction (SelectScreen profiling (Invitrogen)) EUB0000607a YES1; conditions: at 2 µM
[2] = biological target: Fibroblast growth factor receptor 4 (Homo sapiens, UniProt P22455); experiment: Selectivity interaction (SelectScreen profiling (Invitrogen)) EUB0000607a FGFR4; conditions: at 2 µM
Chain of Fibroblast growth factor receptor 4 (P22455 22-802 limits assumed): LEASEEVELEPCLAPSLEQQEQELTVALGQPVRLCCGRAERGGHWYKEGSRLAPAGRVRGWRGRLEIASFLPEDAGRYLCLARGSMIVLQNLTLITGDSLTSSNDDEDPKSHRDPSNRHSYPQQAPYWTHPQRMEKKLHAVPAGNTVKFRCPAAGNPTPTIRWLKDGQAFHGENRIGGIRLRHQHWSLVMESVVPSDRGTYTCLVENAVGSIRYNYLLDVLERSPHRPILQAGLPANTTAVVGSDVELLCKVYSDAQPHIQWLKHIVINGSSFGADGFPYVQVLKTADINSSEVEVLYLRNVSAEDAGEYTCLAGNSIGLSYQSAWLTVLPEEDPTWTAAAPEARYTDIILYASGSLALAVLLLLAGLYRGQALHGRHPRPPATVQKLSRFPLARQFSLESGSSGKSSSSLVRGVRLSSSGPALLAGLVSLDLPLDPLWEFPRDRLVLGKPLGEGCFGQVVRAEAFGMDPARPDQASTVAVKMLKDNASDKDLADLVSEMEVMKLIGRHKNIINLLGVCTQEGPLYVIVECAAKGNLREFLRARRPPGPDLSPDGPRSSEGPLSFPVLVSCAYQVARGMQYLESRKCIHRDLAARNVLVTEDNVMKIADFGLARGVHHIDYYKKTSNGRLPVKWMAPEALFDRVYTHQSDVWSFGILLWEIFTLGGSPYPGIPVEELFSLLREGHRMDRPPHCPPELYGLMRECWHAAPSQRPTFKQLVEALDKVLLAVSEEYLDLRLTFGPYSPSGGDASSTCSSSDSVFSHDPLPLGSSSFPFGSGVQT

[3] = biological target: T1, Mitogen-activated protein kinase kinase kinase 12 (Homo sapiens) (UniProt Q12852); conditions: at 10 µM
T1 sequence (whole entry): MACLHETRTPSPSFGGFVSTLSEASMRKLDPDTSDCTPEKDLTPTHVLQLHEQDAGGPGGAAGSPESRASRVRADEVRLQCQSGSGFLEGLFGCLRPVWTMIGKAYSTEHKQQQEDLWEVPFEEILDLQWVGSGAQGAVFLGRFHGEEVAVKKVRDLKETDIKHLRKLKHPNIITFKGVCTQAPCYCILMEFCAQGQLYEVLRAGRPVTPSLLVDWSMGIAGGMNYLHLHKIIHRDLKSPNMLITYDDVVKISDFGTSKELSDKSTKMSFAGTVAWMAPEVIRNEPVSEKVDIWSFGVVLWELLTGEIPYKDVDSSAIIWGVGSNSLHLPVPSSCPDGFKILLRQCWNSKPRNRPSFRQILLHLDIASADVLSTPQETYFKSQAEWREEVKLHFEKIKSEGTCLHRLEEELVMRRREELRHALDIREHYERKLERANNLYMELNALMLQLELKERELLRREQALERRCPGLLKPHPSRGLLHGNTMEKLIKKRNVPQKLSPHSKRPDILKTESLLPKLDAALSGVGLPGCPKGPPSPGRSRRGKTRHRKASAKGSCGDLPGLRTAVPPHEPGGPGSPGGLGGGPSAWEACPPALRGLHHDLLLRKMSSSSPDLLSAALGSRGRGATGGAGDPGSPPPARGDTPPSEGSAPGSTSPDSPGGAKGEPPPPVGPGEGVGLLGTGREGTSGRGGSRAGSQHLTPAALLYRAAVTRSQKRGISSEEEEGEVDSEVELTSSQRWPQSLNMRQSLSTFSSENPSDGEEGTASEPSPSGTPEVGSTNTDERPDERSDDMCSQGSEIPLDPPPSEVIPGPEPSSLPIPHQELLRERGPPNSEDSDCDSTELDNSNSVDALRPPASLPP

[4] = biological target: Tyrosine-protein kinase Yes (Homo sapiens) (UniProt P07947); experiment: Selectivity interaction (Kinase panel (Invitrogen)) EUB0000639a YES1; conditions: at 200 nM
Focal adhesion kinase 1 = Focal adhesion kinase 1 (Homo sapiens, UniProt Q05397); experiment: Selectivity interaction (ProQinase) EUB0000171b PTK2
Chain of Focal adhesion kinase 1 (Q05397 2-1052 limits assumed): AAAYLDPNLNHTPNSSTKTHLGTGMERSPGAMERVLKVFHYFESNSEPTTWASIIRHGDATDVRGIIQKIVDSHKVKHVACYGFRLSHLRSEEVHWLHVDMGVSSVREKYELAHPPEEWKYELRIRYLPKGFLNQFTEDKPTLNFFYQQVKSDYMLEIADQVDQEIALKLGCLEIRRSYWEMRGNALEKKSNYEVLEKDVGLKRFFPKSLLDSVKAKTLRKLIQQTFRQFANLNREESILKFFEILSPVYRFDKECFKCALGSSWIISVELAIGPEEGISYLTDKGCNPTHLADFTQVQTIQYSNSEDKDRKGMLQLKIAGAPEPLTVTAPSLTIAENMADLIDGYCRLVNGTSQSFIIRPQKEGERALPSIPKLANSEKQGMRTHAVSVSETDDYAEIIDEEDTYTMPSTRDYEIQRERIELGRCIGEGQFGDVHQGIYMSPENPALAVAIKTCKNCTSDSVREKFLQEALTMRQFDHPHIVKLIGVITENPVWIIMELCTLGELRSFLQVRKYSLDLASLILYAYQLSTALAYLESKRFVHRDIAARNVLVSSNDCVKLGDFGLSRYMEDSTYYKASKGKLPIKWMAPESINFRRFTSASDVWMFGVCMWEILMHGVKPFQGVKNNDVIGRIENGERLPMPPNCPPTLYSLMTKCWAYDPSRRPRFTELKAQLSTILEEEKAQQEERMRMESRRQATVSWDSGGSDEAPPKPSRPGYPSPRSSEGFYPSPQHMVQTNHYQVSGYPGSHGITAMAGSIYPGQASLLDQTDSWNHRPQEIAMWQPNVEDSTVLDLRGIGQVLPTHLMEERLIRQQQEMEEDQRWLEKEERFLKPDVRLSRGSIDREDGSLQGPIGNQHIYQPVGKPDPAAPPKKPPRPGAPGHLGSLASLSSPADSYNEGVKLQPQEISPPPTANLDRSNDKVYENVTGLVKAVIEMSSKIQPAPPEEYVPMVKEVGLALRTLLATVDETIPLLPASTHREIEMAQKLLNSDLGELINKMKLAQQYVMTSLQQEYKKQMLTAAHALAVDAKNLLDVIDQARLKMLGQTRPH

[5] = biological target: Mitogen-activated protein kinase 11 (Homo sapiens) (UniProt Q15759); experiment: Selectivity interaction (ProQinase) EUB0000171b MAPK11
Chain of Mitogen-activated protein kinase 11 (Homo sapiens) (Q15759 whole entry): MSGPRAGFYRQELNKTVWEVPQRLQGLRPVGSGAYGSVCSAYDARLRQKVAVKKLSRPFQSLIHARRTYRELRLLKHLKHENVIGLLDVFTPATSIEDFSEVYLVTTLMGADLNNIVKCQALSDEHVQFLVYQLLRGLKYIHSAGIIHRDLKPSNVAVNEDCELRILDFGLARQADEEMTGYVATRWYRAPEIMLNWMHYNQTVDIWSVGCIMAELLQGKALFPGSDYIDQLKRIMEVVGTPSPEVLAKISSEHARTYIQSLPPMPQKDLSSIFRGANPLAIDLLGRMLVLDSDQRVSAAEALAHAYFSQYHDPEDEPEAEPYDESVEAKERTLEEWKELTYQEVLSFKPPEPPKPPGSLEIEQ

[6] = biological target: T2, 3-phosphoinositide-dependent protein kinase 1 (Homo sapiens) (UniProt O15530); experiment: Selectivity interaction (KinomeScan (DiscoverX)) EUB0000655a PDPK1; conditions: at 10 µM
T2 sequence (whole entry): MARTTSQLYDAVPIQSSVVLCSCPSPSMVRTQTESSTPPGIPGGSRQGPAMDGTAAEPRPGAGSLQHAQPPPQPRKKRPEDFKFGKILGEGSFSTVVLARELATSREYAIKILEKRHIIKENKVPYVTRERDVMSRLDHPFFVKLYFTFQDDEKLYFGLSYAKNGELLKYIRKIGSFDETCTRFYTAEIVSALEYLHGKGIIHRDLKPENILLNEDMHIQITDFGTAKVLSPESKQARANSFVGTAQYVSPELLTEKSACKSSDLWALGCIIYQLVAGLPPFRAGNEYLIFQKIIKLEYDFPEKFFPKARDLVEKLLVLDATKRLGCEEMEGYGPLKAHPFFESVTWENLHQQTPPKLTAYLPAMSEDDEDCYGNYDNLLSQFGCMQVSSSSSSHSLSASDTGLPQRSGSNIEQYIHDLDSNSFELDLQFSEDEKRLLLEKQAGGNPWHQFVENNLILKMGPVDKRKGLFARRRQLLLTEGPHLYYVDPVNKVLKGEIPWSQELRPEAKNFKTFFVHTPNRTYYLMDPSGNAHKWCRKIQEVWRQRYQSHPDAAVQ

Misshapen-like kinase 1 = Misshapen-like kinase 1 (Homo sapiens, UniProt Q8N4C8); experiment: Selectivity interaction (KinomeScan (DiscoverX)) EUB0000655a MINK1; conditions: at 10 µM
Chain of Misshapen-like kinase 1 (Q8N4C8 whole entry, looked up, the tested form may be a part): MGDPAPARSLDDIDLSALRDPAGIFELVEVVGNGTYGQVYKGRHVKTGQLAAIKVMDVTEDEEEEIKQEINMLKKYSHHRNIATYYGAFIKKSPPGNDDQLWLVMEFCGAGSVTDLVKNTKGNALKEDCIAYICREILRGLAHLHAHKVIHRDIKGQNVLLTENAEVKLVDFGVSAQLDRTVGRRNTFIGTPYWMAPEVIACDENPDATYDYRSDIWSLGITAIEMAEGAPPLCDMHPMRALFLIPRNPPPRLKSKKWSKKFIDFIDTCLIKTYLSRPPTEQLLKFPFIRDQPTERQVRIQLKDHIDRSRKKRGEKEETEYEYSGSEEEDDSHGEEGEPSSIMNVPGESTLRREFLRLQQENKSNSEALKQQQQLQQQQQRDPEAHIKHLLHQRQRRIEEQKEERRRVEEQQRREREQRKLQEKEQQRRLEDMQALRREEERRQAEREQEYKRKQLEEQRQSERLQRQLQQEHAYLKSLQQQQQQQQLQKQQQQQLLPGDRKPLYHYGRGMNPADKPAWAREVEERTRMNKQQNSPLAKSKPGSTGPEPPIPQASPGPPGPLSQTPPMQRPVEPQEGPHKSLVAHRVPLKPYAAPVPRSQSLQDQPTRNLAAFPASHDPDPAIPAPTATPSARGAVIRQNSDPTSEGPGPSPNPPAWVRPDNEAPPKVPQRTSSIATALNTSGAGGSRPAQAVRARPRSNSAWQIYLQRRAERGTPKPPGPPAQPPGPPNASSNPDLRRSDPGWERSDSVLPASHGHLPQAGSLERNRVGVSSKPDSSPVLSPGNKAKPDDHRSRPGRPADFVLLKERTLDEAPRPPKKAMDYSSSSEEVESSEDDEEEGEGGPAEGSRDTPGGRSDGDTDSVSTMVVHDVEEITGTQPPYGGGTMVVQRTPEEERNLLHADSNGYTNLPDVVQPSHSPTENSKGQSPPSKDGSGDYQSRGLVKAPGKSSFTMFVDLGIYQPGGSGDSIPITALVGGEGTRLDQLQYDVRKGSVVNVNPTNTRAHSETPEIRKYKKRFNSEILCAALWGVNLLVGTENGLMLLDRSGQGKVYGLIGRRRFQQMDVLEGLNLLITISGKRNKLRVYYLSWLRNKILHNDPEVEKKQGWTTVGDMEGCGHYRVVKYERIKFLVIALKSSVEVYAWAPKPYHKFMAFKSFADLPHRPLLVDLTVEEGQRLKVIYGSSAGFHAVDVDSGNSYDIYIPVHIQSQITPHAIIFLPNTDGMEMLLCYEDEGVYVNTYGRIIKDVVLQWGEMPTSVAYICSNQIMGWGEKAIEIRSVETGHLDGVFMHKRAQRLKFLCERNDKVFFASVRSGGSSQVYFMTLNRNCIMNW

[7] = biological target: DNA mismatch repair protein Msh6 (Homo sapiens) (UniProt P52701); experiment: Selectivity interaction (PWWP, WD40, and Tudor domain panel (DSLS measurements, literature)) EUB0000270b MSH6
[8] = biological target: T3, Serine/threonine-protein kinase tousled-like 1 (Homo sapiens) (UniProt Q9UKI8); experiment: Selectivity interaction (KinomeScan (DiscoverX)) EUB0000229b TLK1; conditions: at 10 µM
T3 sequence (whole entry): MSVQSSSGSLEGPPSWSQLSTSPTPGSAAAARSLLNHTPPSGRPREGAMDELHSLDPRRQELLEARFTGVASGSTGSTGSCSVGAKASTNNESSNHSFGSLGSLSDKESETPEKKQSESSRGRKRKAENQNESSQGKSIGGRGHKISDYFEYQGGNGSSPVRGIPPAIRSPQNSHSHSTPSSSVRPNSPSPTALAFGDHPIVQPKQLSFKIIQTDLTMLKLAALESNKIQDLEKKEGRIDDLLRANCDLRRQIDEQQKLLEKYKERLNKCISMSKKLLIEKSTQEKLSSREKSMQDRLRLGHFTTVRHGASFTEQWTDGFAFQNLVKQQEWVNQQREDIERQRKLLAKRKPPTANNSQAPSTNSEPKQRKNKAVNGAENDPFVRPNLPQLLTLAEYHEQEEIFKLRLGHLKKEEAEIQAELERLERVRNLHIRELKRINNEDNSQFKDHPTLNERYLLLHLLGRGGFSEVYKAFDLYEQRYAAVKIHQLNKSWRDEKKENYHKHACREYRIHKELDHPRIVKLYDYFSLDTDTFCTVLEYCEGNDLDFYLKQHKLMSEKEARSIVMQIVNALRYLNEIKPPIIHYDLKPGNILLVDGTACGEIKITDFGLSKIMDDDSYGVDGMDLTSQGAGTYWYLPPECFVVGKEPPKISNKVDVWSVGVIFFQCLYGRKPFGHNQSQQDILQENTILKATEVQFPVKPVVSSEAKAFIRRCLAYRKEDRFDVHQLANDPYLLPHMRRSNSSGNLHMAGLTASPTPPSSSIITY

[9] = biological target: Tyrosine-protein kinase Lck (Homo sapiens, UniProt P06239); conditions: at 10 µM
Chain of Tyrosine-protein kinase Lck (P06239 2-509 limits assumed): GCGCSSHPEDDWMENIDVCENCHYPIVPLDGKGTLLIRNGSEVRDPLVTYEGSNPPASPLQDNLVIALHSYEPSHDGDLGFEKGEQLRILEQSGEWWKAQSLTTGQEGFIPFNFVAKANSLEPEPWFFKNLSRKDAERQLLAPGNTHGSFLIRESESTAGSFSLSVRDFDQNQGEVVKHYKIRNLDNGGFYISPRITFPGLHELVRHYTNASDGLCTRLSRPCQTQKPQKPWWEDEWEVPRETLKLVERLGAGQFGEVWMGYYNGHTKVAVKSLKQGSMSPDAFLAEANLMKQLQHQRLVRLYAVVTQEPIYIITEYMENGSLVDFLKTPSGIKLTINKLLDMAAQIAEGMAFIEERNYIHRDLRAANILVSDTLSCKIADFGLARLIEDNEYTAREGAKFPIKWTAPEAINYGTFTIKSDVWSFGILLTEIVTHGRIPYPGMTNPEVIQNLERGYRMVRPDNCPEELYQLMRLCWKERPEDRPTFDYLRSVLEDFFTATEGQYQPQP

[10] = biological target: Serine/threonine-protein kinase B-raf (Homo sapiens) (UniProt P15056); experiment: Selectivity interaction (ActivX KiNativ screen (ex vivo kinase selectivity in human PBMCs)) EUB0001619a BRAF; type: cell-based; conditions: PBMC, at 1 µM
[11] = biological target: Serine/threonine-protein kinase Chk2 (Homo sapiens) (UniProt O96017); experiment: Selectivity interaction (KinomeScan (DiscoverX)) EUB0001619a CHEK2; conditions: at 1 µM

Chain of Tyrosine-protein kinase Yes (Homo sapiens) (P07947 2-543 limits assumed): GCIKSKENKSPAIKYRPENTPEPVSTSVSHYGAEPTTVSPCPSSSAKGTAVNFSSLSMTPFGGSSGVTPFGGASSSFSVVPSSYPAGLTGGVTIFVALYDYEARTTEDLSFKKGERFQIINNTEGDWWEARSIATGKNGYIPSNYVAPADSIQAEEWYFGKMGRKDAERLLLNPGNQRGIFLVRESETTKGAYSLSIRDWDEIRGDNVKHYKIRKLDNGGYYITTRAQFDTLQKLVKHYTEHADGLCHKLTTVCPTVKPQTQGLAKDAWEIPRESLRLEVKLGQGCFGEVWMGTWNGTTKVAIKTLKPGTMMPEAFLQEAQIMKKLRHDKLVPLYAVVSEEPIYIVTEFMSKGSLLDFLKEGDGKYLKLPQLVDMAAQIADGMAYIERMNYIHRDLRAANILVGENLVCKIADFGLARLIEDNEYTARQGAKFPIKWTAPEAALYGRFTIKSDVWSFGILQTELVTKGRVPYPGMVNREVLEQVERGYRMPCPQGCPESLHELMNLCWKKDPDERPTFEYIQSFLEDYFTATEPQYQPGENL

SMILES: CNC(=O)Nc1ccc(-c2nc(N3CC4CCC(C3)O4)c3cnn(C4CCC5(CC4)OCCO5)c3n2)cc1
% of inhibition [1]: 2%
% of inhibition [2]: 4%

% of control [3]: 100%
SMILES: CCN(CC)CCCCNc1ncc2cc(-c3cc(OC)cc(OC)c3)c(NC(=O)NC(C)(C)C)nc2n1

% of inhibition [4]: 3.51%
SMILES: CC[C@@H]1[C@H](F)C(=O)N[C@@H]1COc1nccc2cc(C(N)=O)c(OC)cc12 [ZIMLOVISERTIB]

% of control (Focal adhesion kinase 1; at 1 µM): 106%
% of control (Focal adhesion kinase 1; at 5 µM): 92%
% of control ([5]; at 1 µM): 93%
% of control ([5]; at 5 µM): 75%
SMILES: C=CC(=O)Nc1cccc(C(=O)Nc2ccc(Nc3cc(-c4[nH]c(SC)nc4C)ccn3)cc2)c1

SMILES: CN(C)CCOc1ccc(-c2nc(-c3ccncc3)c(-c3ccc4c(c3)CC/C4=N\O)[nH]2)cc1
% of control [6]: 88%
% of control (Misshapen-like kinase 1): 6%

dTagg [7]: -0.2 K
SMILES: Cc1cc(CN)cc(C)c1-c1ncn(C)c1-c1cncn1C

SMILES: COc1cc(N(C)c2ccnc3ccc(C(F)(F)F)cc23)cc(OC)c1OC
% binding [8]: 97%

SMILES: Cc1cc([C@@H](C)Nc2ccccc2C(=O)O)c2nc(N3CCOCC3)cc(=O)n2c1 [AZD-6482]
% of control [9]: 97%

SMILES: N#Cc1cccc(-c2c[nH]c3ncnc(N4CCOCC4)c23)c1
% of inhibition [10]: -1%
% of control [11]: 100%
